According to patent US20240374581A1, “SALT TYPES OF TRICYCLIC TETRAHYDRO ISOQUINOLINE DERIVATIVE” (JIANGSU HENGRUI PHARMACEUTICALS CO., LTD., priority 2021, published 2024):

Tests used:
[1] = Influencing factor stability study
ERα = ERα (Homo sapiens (Human), UniProt P03372); assay: Degradation of ERα in MCF-7 cells (ELISA); assay type: cell-based; settings: 16 to 18 h, read-out: EC50, degradation of ERα
Protocol: ERα-positive breast cancer cell line MCF-7 cells were cultured in a DMEM/F12 medium (HyClone, SH30023.01) containing 10% fetal bovine serum (Corning, 35-010-CV). […] The 48-well plate was placed in the incubator for 16 to 18 h. A 96-well plate was coated with the capture antibody from the human ERα/NR3A1 total protein assay kit (R&D, DYC5715-5). […] The plate was placed in an incubator at 26° C. overnight. On day 3, the antibody-coated 96-well plate was washed once with PBS, and 200 μL of PBS containing 1% BSA was added to each well. The plate was incubated in an incubator at 37° C. for 1.5 h to be blocked. The cell culture medium supernatant was discarded. […] A biotinylated assay antibody was diluted to 0.4 μg/mL with PBS containing 1% BSA, and then 100 μL of the assay antibody was added to each well. The plate was incubated in an incubator at 37° C. for 1 h. The plate was then washed five more times, and 100 μL of avidin-HRP diluted 200-fold with PBS containing 1% BSA was added to each well. The plate was incubated at 37° C. for 30 min.

ER (estrogen receptor) = ER (estrogen receptor) (Homo sapiens (Human), UniProt P03372); assay: Inhibition of binding of E to ER (MCF-7/ERE-luciferase reporter); assay type: cell-based; settings: MCF-7/ERE-luciferase cells, 0.1 nM estradiol, 24 h; read-out: IC50, inhibitory effect on the binding of E to ER
Chain of ER (estrogen receptor) (P03372 whole entry): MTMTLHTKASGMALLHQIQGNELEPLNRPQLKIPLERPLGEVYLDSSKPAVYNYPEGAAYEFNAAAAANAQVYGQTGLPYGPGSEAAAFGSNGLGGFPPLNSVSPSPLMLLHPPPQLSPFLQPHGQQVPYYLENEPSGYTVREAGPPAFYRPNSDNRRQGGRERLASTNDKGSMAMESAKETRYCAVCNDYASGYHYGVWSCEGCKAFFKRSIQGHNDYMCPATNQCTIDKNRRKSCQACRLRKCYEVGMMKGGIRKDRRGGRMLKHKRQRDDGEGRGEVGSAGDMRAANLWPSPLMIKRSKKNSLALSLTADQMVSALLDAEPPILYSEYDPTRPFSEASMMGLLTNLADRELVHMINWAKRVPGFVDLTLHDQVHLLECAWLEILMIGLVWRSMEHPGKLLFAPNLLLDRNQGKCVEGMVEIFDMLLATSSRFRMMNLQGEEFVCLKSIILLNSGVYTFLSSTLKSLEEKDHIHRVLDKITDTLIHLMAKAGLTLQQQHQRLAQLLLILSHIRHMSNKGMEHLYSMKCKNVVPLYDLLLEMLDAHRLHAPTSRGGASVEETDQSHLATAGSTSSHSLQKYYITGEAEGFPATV
Protocol: The compound of the present disclosure can inhibit the binding of E (estrogen) to ER (estrogen receptor), thereby blocking the binding of the complex of E and ER to ERE (estrogen response element), and consequently the expression of downstream luciferase proteins. The inhibitory effect of the compound of the present disclosure on the binding of E to ER was tested by using the following method.
An ERE was cloned upstream of the luciferase gene, and MCF-7/ERE-luciferase monoclonal cells were selected by transfection of MCF-7 (TCHu74, National Collection of Authenticated Cell Cultures). The MCF-7/ERE-luciferase cells were seeded into a 96-well plate with an MEM (hyclone, SH30024.01B) medium containing 10% charcoal stripped FBS (Moregate, FBSF), 1% sodium pyruvate (sigma, S8636), 1% non-essential amino acids (sigma, M7145) and 500 μg/mL G418 at a density of 30,000 cells/well and cultured at 37° C. with 5% CO2. […] The plate was let stand at room temperature in the dark for 10-15 min, and the chemiluminescence signal value was determined.
The inhibitory effect of the compound of the present disclosure on the binding of E to ER was determined through the above experiment. The chemiluminescence signal value was analyzed against the compound concentration (in log form) using Graphpad Prism, and the IC50 value of the compound was obtained.

[2] = Long-term/accelerated stability; assay type: physicochemical; settings: for Crystal form: up to 3 months
hERG potassium channels = hERG potassium channels (Homo sapiens (Human), UniProt Q12809); assay: Blocking of hERG potassium currents (automated patch clamp, HEK293-hERG); assay type: cell-based
Chain of hERG potassium channels (Q12809 whole entry): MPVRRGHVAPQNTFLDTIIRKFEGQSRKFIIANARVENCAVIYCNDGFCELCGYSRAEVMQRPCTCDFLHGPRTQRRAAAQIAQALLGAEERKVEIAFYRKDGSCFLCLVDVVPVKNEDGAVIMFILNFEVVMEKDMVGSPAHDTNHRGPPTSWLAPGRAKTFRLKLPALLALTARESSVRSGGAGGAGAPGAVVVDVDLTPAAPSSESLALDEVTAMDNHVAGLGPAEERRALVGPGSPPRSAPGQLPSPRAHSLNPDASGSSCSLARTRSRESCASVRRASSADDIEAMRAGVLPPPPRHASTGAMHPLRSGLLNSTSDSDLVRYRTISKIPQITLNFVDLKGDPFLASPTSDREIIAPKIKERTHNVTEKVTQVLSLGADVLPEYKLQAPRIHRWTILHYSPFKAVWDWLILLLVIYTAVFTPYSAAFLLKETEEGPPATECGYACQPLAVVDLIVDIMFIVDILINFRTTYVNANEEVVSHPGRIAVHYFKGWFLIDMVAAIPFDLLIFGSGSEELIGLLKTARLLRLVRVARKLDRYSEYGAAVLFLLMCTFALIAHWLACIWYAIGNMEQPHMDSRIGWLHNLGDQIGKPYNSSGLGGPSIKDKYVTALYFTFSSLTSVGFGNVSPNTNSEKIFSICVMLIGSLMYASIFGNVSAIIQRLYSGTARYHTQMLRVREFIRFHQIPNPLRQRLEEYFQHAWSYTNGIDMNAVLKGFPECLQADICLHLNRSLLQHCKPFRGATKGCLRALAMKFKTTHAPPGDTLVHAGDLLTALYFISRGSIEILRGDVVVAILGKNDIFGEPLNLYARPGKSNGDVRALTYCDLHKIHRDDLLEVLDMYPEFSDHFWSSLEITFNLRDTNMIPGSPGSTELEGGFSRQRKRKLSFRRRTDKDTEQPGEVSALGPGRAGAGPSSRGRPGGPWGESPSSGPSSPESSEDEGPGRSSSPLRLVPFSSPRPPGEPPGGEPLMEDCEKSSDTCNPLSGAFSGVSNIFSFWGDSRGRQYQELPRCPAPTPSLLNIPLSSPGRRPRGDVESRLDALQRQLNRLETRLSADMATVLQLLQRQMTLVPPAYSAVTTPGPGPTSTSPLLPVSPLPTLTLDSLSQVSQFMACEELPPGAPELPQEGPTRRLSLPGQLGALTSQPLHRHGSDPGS
Protocol: The blocking of hERG potassium currents by the compound disclosed herein was tested in a stable cell strain transfected with hERG potassium channels using automated patch clamp.
Stably-expressed HEK293-hERG cell strains were subcultured at a density of 1:4 in an MEM/EBSS medium (10% FBS, 400 μg/mL G418, 1% MEM non-essential amino acid solution (100×), and 1% sodium pyruvate solution) and subjected to an automated patch clamp experiment within 48-72 h after the start of the culture. On the day of the experiment, the cells were digested with 0.25% pancreatin, then centrifuged, collected, and resuspended in an extracellular fluid (140 mM NaCl, 4 mM KCl, 1 mM MgCl2, 2 mM CaCl2, 5 mM D-glucose monohydrate, 10 mM Hepes, pH 7.4, 298 mOsm) to form a cell suspension. The cell suspension was placed on the cell bank of the Patchliner instrument that transferred the cells to the chip (NPC-16) using a negative pressure controller. The negative pressure drew individual cells to the wells of the chip. […] Data were recorded and analyzed using the HEAK Patchmaster, HEAK EPC10 patch clamp amplifier (Nanion), Pathliner software and Pathcontrol HTsoftware, and the current of the compound at each concentration and the current of the blank control were analyzed.

Chain of ERα (P03372 whole entry): as the sequence (P03372 whole entry) above

Compound: [2H]C1([2H])Oc2cc3c(cc2O1)[C@@H](c1ccc(NC2CN(CCCF)C2)cn1)N(CC(F)(F)CO)[C@H](C)C3 [Compound 1, 2,2-Difluoro-3-((5S,7R)-5-(5-((1-(3-fluoropropyl)azetidin-3-yl)amino)pyridin-2-yl)-7-methyl-7,8-dihydro-[1,3]dioxolo[4,5-g]isoquinolin-6(5H)-yl-2,2-d2)propan-1-ol]
- Crystal form ([1]; 40° C., 1 month): Amorphous form
- Purity (%) ([1]; 40° C., 1 month): 95.4%
- Crystal form ([1]; 40° C., 5 days): Amorphous form
- Purity (%) ([1]; 40° C., 5 days): 96.7%
- Crystal form ([1]; 40° C., 10 days): Amorphous form
- Purity (%) ([1]; 40° C., 10 days): 96.5%
- Crystal form ([1]; 60° C., 1 month): Amorphous form
- Purity (%) ([1]; 60° C., 1 month): 87.6%
- Crystal form ([1]; 60° C., 5 days): Amorphous form
- Purity (%) ([1]; 60° C., 5 days): 95.7%
- Crystal form ([1]; 60° C., 10 days): Amorphous form
- Purity (%) ([1]; 60° C., 10 days): 94.2%
- behaviour under the high-humidity conditions (conclusion) ([1]; 75% RH and 92.5% RH, 30 days): deliquesced
- Crystal form ([1]; 75% RH, 1 month): Deliquescence
- Purity (%) ([1]; 75% RH, 1 month): 96.9%
- Crystal form ([1]; 75% RH, 5 days): Amorphous form
- Purity (%) ([1]; 75% RH, 5 days): 97.0%
- Crystal form ([1]; 75% RH, 10 days): Amorphous form
- Purity (%) ([1]; 75% RH, 10 days): 97.0%
- Crystal form ([1]; 92.5% RH, 1 month): Deliquescence
- Purity (%) ([1]; 92.5% RH, 1 month): 97.0%
- Crystal form ([1]; 92.5% RH, 5 days): Amorphous form
- Purity (%) ([1]; 92.5% RH, 5 days): 96.9%
- Crystal form ([1]; 92.5% RH, 10 days): Amorphous form
- Purity (%) ([1]; 92.5% RH, 10 days): 97.0%
- Crystal form ([1]; 4500 Lux, 1 month): Amorphous form
- Purity (%) ([1]; 4500 Lux, 1 month): 71.7%
- Crystal form ([1]; 4500 Lux, 5 days): Amorphous form
- Purity (%) ([1]; 4500 Lux, 5 days): 94.0%
- Crystal form ([1]; 4500 Lux, 10 days): Amorphous form
- Purity (%) ([1]; 4500 Lux, 10 days): 89.9%
- Crystal form ([1]; Initial, 0 days): Amorphous form
- Purity (%) ([1]; Initial, 0 days): 97.1%
- DC50 (ERα): 0.38 nM
- IC50 (ER (estrogen receptor)): 0.69 nM
- Purity (%) 1 month ([2]; 25° C./60% RH): 97.1%
- Purity (%) 2 months ([2]; 25° C./60% RH): 96.7%
- Purity (%) 3 months ([2]; 25° C./60% RH): 96.7%
- Purity (%) 7 days ([2]; 25° C./60% RH): 97.1%
- Purity (%) 14 days ([2]; 25° C./60% RH): 97.0%
- Purity (%) Initial ([2]; 25° C./60% RH): 97.1%
- Crystal form ([2]; 25° C./60% RH): Unchanged
- Purity (%) 1 month ([2]; 40° C./75% RH): 96.5%
- Purity (%) 2 months ([2]; 40° C./75% RH): 95.5%
- Purity (%) 3 months ([2]; 40° C./75% RH): 94.9%
- Purity (%) 7 days ([2]; 40° C./75% RH): 96.8%
- Purity (%) 14 days ([2]; 40° C./75% RH): 96.6%
- Purity (%) Initial ([2]; 40° C./75% RH): 97.1%
- Crystal form ([2]; 40° C./75% RH): Unchanged
- IC50 (hERG potassium channels): > 30000 nM
